Test [1] addresses T1, Rat striatal nicotinic receptors ([3H]MLA binding) (Rattus norvegicus, UniProt Q05941).
T1 construct: Whole brain, excluding cortex and cerebellum, was homogenized; from tissue; host or cells: rat brain membranes (whole brain excluding cortex and cerebellum)
The test is described as follows: Inhibition of [3H]methyllycaconitine (MLA) binding. The conditions noted are these: for Inhibition of [3H]MLA Binding: % inhibition at 100 nM analog, 2.5 nM [3H]MLA, nonspecific binding with 1 μM nicotine (footnote b). The method, then: Whole brain, excluding cortex and cerebellum, was homogenized in 20 vol of ice-cold buffer, containing (in mM): 2 HEPES, 11.8 NaCl, 0.48 KCl, 0.25 CaCl2 and 0.12 MgSO4, pH 7.5. Homogenate was centrifuged (25,000 g, 15 min, 4° C.). Pellets were resuspended in 20 vol buffer and incubated at 37° C., for 10 min, cooled to 4° C. and centrifuged (25,000 g, 15 min, 4° C.). Pellets were resuspended and centrifuged using the same conditions. Final pellets were stored in assay buffer, containing (in mM): 20 HEPES, 118 NaCl, 4.8 KCl, 2.5 CaCl2, and 1.2 MgSO4, pH 7.5 at −70° C. Upon use, final pellets were resuspended in ˜20 vol assay buffer. […] Control was in the absence of analog. […] Incubations proceeded for 60 min at room temperature using 96-well plates and were terminated by harvesting on Unifilter-96 GF/B filter plates presoaked in 0.5% polyethylenimine, using a Packard FilterMate harvester. After washing 5 times with 350 μl ice-cold assay buffer, filter plates were dried (60 min, 4° C.), bottom-sealed, and filled with Packard's MicroScint 20 cocktail (40 μl/well). After 60 min, filter plates were top-sealed, and radioactivity determined using a Packard TopCount. Protein concentrations were determined using the Bradford dye-binding procedure bovine serum albumin as the standard.

In test [2] the target is T2, Rat striatal nicotinic receptors ([3H]nicotine binding) (Rattus norvegicus, UniProt P09483+P12390).
T2 construct: Whole brain, excluding cortex and cerebellum, was homogenized; from tissue; host or cells: rat brain membranes (whole brain excluding cortex and cerebellum)
T2 sequence (P09483 31-630): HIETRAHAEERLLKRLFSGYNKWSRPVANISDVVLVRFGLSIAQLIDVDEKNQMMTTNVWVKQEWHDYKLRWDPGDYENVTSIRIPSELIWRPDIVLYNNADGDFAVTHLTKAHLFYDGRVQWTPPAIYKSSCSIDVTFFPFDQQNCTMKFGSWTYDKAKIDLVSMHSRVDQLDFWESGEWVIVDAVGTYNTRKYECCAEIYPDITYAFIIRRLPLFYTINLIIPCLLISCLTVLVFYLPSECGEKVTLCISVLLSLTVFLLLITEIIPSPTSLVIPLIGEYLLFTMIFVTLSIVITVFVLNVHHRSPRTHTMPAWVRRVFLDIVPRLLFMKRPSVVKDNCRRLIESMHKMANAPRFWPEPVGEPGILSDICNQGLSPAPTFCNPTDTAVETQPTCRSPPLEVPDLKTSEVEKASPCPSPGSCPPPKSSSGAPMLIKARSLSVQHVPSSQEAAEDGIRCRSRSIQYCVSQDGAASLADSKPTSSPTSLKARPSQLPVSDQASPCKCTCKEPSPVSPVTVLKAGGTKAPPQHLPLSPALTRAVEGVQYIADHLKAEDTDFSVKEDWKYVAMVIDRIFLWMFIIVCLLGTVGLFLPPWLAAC
T2 sequence (P12390 25-500): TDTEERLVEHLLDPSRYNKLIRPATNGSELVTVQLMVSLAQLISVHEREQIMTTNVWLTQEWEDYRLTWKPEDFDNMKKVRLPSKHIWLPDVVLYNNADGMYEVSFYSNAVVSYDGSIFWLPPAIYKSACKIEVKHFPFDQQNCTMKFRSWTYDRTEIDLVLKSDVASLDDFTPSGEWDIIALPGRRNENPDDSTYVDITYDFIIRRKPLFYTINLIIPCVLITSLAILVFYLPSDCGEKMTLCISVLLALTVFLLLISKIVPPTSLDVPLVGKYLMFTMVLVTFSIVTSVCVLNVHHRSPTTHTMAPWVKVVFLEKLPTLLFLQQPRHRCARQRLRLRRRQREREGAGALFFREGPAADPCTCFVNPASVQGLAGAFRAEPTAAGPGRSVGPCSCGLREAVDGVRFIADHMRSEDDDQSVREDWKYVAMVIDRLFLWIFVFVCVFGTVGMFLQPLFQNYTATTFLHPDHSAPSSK
The test is described as follows: Inhibition of [3H]nicotine binding. As to conditions: 3 nM [3H]nicotine; for Inhibition of [3H]Nicotine binding: % inhibition at 100 nM analog, nonspecific binding with 10 μM cytisine. The method, then:
Whole brain, excluding cortex and cerebellum, was homogenized in 20 vol of ice-cold buffer, containing (in mM): 2 HEPES, 11.8 NaCl, 0.48 KCl, 0.25 CaCl2 and 0.12 MgSO4, pH 7.5. Homogenate was centrifuged (25,000 g, 15 min, 4° C.). Pellets were resuspended in 20 vol buffer and incubated at 37° C., for 10 min, cooled to 4° C. and centrifuged (25,000 g, 15 min, 4° C.). Pellets were resuspended and centrifuged using the same conditions. Final pellets were stored in assay buffer, containing (in mM): 20 HEPES, 118 NaCl, 4.8 KCl, 2.5 CaCl2, and 1.2 MgSO4, pH 7.5 at −70° C. Upon use, final pellets were resuspended in ˜20 vol assay buffer. Samples (250 μl) contained 100-140 μg of membrane protein, 3 nM [^3H]nicotine or 3 nM [^3H]methyllycaconitine (MLA), and bis-quaternary ammonium cyclophane analog (100 nM) in assay buffer containing 50 mM Tris. Control was in the absence of analog. In [^3H]nicotine and [^3H]methyllycaconitine binding assays, nonspecific binding was determined in the presence of 10 μM cytisine and 10 μM nicotine, respectively. Incubations proceeded for 60 min at room temperature using 96-well plates and were terminated by harvesting on Unifilter-96 GF/B filter plates presoaked in 0.5% polyethylenimine, using a Packard FilterMate harvester. After washing 5 times with 350 μl ice-cold assay buffer, filter plates were dried (60 min, 4° C.), bottom-sealed, and filled with Packard's MicroScint 20 cocktail (40 μl/well). After 60 min, filter plates were top-sealed, and radioactivity determined using a Packard TopCount. Protein concentrations were determined using the Bradford dye-binding procedure bovine serum albumin as the standard.

Test [3] deals with nicotine-evoked [3H]DA release, rat striatal slices. As to the kind of experiment: Inhibition of nicotine-evoked [3H]dopamine release from superfused rat striatal slices. It counts as cell-based. The conditions noted are these: 100 nM analog superfused 60 min before nicotine (10 μM). The method, then:
Rat striatal slices (500 μm thickness, 6-8 mg wet weight) were incubated for 30 minutes in Krebs buffer (118 mM NaCl, 4.7 mM KCl, 1.2 mM MgCl2, 1.0 mM NaH2PO4, 1.3 mM CaCl2, 11.1 mM glucose, 25 mM NaHCO3, 0.11 mM L-ascorbic acid, and 0.004 mM disodium EDTA; pH 7.4, and saturated with 95% O2/5% CO2) in a metabolic shaker at 34° C. Slices were rinsed with 15 mL of fresh buffer and incubated for an additional 30 minutes in fresh buffer containing 0.1 μM [^3H]dopamine (DA; 6 slices/3 mL). Subsequently, slices were rinsed with 15 mL of fresh buffer and transferred to a glass superfusion chamber. Slices were superfused (1.0 mL/min) for 60 minutes with Krebs buffer containing nomifensine (10 μM) and pargyline (10 μM) and maintained at 34° C., pH 7.4, with continual aeration (95% O2/5% CO2). Two five minute samples (5 mL each) were collected to determine basal outflow of [^3H]DA. The bis-quaternary ammonium cyclophane analogs were added to the superfusion buffer after the collection of the second sample and remained in the buffer until 12 consecutive five minute samples were collected. […] At the end of the experiment, each slice was solubilized and the [^3H] content of the tissue determined.
Radioactivity in the superfusate and tissue samples was determined by liquid scintillation spectroscopy. Fractional release for tritium collected in each sample was divided by the total tritium present in the tissue at the time of sample collection and was expressed as a percentage of total tritium. Basal [^3H]outflow was calculated from the average of the tritium collected in the two five minute samples just before addition of the quaternary ammonium analog. […] [^3H]Overflow was calculated by subtracting the [^3H]outflow during an equivalent period of prestimulation from the values in samples collected during and after drug exposure. […]
The bis-quaternary ammonium cyclophane analogs were also evaluated for their ability to inhibit nicotine evoked [^3H]DA release. […] Antagonist activity was evaluated by comparing the nicotine evoked [^3H]overflow in the absence and presence of the analogs. […]

Another test concerns the target BBB choline transporter. As to the kind of experiment: Affinity for the BBB choline transporter. It counts as binding.
Where [4] appears, read: full concentration effect evaluated.

As a reminder, the Ki is a measure of affinity in units of concentration, obtained from inhibition or displacement.

T1 sequence (Q05941 23-502): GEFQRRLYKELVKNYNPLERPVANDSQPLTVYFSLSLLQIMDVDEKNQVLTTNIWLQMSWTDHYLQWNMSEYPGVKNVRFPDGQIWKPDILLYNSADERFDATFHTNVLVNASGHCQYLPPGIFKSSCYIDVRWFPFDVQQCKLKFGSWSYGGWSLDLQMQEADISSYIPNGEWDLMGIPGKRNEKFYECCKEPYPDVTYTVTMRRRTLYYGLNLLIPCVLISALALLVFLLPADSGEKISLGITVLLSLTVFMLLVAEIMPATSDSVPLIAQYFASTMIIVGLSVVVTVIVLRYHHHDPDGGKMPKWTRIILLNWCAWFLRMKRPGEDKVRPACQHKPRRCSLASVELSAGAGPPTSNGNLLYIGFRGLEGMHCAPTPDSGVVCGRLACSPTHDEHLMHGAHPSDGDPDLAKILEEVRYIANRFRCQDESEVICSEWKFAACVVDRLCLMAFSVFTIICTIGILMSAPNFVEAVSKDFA

Take `C1#Cc2ccc[n+](c2)CCCCCCCC[n+]2cccc(c2)C#CCCCCCC1.[I-].[I-]` [N,N′-(1,8-octanediyl)-3,3′-(1,9-decanediyn-1,10-diyl)-bis-pyridinium diiodide]: the “Inhibition of [3H]MLA Binding” value in test [1] is listed as 0%. Further, the “Inhibition of [3H]Nicotine binding” value in test [2] is listed as 9%.
For `c1cc2c[n+](c1)CCCCCCCCCCCCc1ccc[n+](c1)CCCCCCCCCCCC2` [N,3′-(1,12-dodecanediyl)-3,N′-(1,12-dodecanediyl)-bis-pyridinium dibromide], the “Inhibition of Nicotine-evoked [3H]DA release” value (“Inhibition of Nicotine-evoked” below) in test [3] amounted to 20%. In addition, the “Inhibition of [3H]MLA Binding” value in test [1] worked out at 0%. Further, the “Inhibition of [3H]Nicotine binding” value in test [2] was found to be 2%.
With `C1#Cc2ccc[n+](c2)CCCCCCCCCC[n+]2cccc(c2)C#CCCCCCC1` [N,N′-(1,10-decanediyl)-3,3′-(1,9-decanediyn-1,10-diyl)-bis-pyridinium diiodide], the “Inhibition of Nicotine-evoked” value in test [3] stood at 19%. Moreover, the inhibitory constant (Ki) on BBB choline transporter worked out at 0.8 µM; in test [1] (setting [4]) it was 4.64 µM; in test [2] (setting [4]), 0.55 µM.
Turning to `c1cc2c[n+](c1)CCCC[n+]1cccc(c1)CCCCCCCCCCCC2` [N,N′-(1,4-butanediyl)-3,3′-(1,12-dodecanediyl)-bis-pyridinium diiodide], the “Inhibition of Nicotine-evoked” value in test [3] is on record as 23%. Further, in test [1], the “Inhibition of [3H]MLA Binding” value stood at 3.0 ± 3.0%. In addition, the “Inhibition of [3H]Nicotine binding” value in test [2] amounted to 14 ± 2.6%.
On BBB choline transporter, `C1#Cc2ccc[n+](c2)CCCCCCCCCCC[n+]2cccc(c2)C#CCCCCCC1.[Br-].[Br-]` [N,N′-(1,11-undecanediyl)-3,3′-(1,9-decanediyn-1,10-diyl)-bis-pyridinium dibromide] gave an inhibition constant Ki of 15.2 µM. Besides, in test [1], the “Inhibition of [3H]MLA Binding” value turned out to be 3%. Further, the “Inhibition of [3H]Nicotine binding” value in test [2] turned out to be 11%.
The corresponding values for `C1#Cc2ccc[n+](c2)CCCCCCCCC[n+]2cccc(c2)C#CCCCCCC1.[Br-].[Br-]` [N,N′-(1,9-nonanediyl)-3,3′-(1,9-decanediyn-1,10-diyl)-bis-pyridinium dibromide] are 1.4 µM, 3% and 0%.
The molecule `C1#Cc2ccc[n+](c2)CCCCCC[n+]2cccc(c2)C#CCCCCCC1.[I-].[I-]` [N,N′-(1,6-hexanediyl)-3,3′-(1,9-decanediyn-1,10-diyl)-bis-pyridinium diiodide] yielded a Ki on BBB choline transporter of 33.6 µM. In addition, in test [1], the “Inhibition of [3H]MLA Binding” value was determined as 2%. In addition, in test [2], the “Inhibition of [3H]Nicotine binding” value came to 7%.
